target: T1, récepteurs 5-HT 1A (Homo sapiens, UniProt P08908); assay: 5-HT 1A receptor binding (radioligand displacement); conditions: specific binding to 5-HT 1A receptors; test concentration not given; method cited from M. Hapon, Brain Receptor Methodologies
T1 sequence (P08908 1-422): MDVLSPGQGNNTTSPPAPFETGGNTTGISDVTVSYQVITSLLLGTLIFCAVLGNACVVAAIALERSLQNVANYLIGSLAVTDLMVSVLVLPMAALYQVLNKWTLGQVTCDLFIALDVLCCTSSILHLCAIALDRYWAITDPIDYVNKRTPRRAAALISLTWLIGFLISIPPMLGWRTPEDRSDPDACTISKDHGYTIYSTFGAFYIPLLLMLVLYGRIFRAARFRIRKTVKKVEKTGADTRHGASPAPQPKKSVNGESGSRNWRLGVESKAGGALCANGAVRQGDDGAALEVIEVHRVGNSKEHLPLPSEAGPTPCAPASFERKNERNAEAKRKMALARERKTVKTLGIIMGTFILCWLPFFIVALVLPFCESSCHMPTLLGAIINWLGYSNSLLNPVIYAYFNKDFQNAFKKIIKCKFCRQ
Source text: L'activité de certains composés sur le système nerveux central a été étudiée et plus précisément leur activité sérotoninergique, par leur union spécifique aux récepteurs 5-HT 1A. TABLEAU II

| SMILES | Binding 5-HT-1A déplacement (%) |
| --- | --- |
| O=C1CC2(CCCC2)CC(=O)N1CCCCN1CCN(c2ncccn2)CC1 [Buspirone, reference compound] | 99,1% |
| Cn1ccnc1C(OCCCCN1CCN(c2ncccn2)CC1)c1ccc(Cl)cc1 (centres unmarked) [Exemple 1] | 94,7% |
| Cn1ccnc1C(C)(OCCCCN1CCN(c2ncccn2)CC1)c1ccc(Cl)cc1 (centres unmarked) [Exemple 2] | 98,6% |
| CCCCn1ccnc1C(C)(OCCCCN1CCN(c2ncccn2)CC1)c1cccc(C(F)(F)F)c1 (centres unmarked) [Exemple 3] | 97,6% |
| Cn1ccnc1C(C)(OCCCCN1CCN(c2ncccn2)CC1)c1cccc(C(F)(F)F)c1 (centres unmarked) [Exemple 4] | 98,1% |
| CCCCn1ccnc1C(OCCCCN1CCN(c2ncccn2)CC1)c1ccc(Cl)cc1 (centres unmarked) [Exemple 5] | 91,5% |
| CCCCn1ccnc1C(OCCCCN1CCN(c2ncccn2)CC1)c1cccc(C(F)(F)F)c1 (centres unmarked) [Exemple 6] | 94,6% |
| Cn1ccnc1C(OCCCCN1CCN(c2ncccn2)CC1)c1cccc(C(F)(F)F)c1 (centres unmarked) [Exemple 7] | 98,3% |
| Cn1nccc1C(OCCCCN1CCN(c2ncccn2)CC1)c1ccc(Cl)cc1 (centres unmarked) [Exemple 8] | 95,0% |
| Cn1nccc1C(C)(OCCCCN1CCN(c2ncccn2)CC1)c1ccc(Cl)cc1 (centres unmarked) [Exemple 9] | 95,0% |
| O=C1c2ccccc2S(=O)(=O)N1CCCCN1CCN(c2ncccn2)CC1 [Ipsapirone, reference compound] | 99,6% |

Reference: EP0382636A1, “Pyrimidine derivatives, 2-[4-(alpha-heteroaryl-alpha-aryl-(alpha-alkyl)-methoxy)-butyl)-1-piperazinyl], with a serotoninergical activity” (LABORATORIOS DEL DR. ESTEVE, S.A., priority 1989, dated 1990)
